# Measured values reported in patent publication US10080779B2, “Method for increasing the expression of anti-microbial peptides by keratinocytes comprising administering a composition comprising IL-17, TNF-alpha and OSM” (Universite D'Angers, priority 2004, dated 2018).
# B1: IL-17F: cytokine of the same family as IL-17A (protein, UniProt Q96PD4 31-163, looked up)
# Interleukin-17F: RKIPKVGHTFFQKPESCPPVPGGSMKLDIGIINENQRVSMSRNIESRSTSPWNYTVTWDPNRYPSEVVQAQCRNLGCINAQGKEDISMNSVPIQQETLVVRRKHQGCSVSFQLEKVLVTVGCTCVTPVIHHVQ
# B2: INFγ: gamma Interferon (protein, UniProt P01579 24-161, looked up)
# Interferon gamma: QDPYVKEAENLKKYFNAGHSDVADNGTLFLGILKNWKEESDRKIMQSQIVSFYFKLFKNFKDDQSIQKSVETIKEDMNVKFFNSNKKKRDDFEKLTNYSVTDLNVQRKAIHELIQVMAELSPAAKTGKRKRSQMLFRG
# B3: IL-24: cytokine of the same family as IL-22 (protein, UniProt Q13007 52-206, looked up)
# Interleukin-24: QEFHFGPCQVKGVVPQKLWEAFWAVKDTMQAQDNITSARLLQQEVLQNVSDAESCYLVHTLLEFYLKTVFKNYHNRTVEVRTLKSFSTLANNFVLIVSQLQPSQENEMFSIRDSAHRRFLLFRRAFKQLDVEAALTKALGEVDILLTWMQKFYKL
# B4: TNFβ: cytokine of the same family as TNFα (protein, UniProt P01374 35-205, looked up)
# Lymphotoxin-alpha: LPGVGLTPSAAQTARQHPKMHLAHSTLKPAAHLIGDPSKQNSLLWRANTDRAFLQDGFSLSNNSLLVPTSGIYFVYSQVVFSGKAYSPKATSSPLYLAHEVQLFSSQYPFHVPLLSSQKMVYPGLQEPWLHSMYHGAAFQLTQGDQLSTHTDGIPHLVLSPSTVFFGAFAL
# Key:
# [1] = system: RHE; test: RHE histology and immunohistochemistry (Example 14); type: cell-based, human; conditions: 72 h; for CK10, LOR and FLG expression (immunohistology) / IVL expression (immunohistology) / S100A7 expression (immunohistology): RHE; for CK10, LOR and FLG expression (immunohistology) / IVL expression (immunohistology) / S100A7 expression (immunohistology) / RHE histology: single cytokines
# Experimental: (§1) Normal human epidermal keratinocytes (NHEK) were obtained as previously described, from surgical samples of healthy breast skin (Boniface et al, 2005). NHEK were cultured to 80% of confluence allowing the expression of a large panel of keratinocyte differentiation markers, and then starved for 24 h in Keratinocyte SFM containing 0.03 mM Ca^2+ (Invitrogen Life Technologies, Cergy Pontoise, France) before stimulation. Confluent differentiated cells were stimulated with or without recombinant IL-17A, OSM, TNFα, IL-22 and IL-1α alone at maximum effective concentrations (reported previously around 10 ng/ml (Boniface et al, 2005 and Boniface et al, 2007)) or in combination (R&D systems Europe, Lille, France) during 2 h to 72 h for mRNA quantification. RHE were generated on polycarbonate culture inserts, from surgical samples of paediatric foreskins as previously described (Guenou et al., 2009). RHE were stimulated with or without recombinant IL-17A, OSM, TNFα, IL-22 and IL-1α alone or in combination, with or without a Janus protein Tyrosine Kinases (JAKs) inhibitor 10 μM (Calbiochem, 420099), during 24 h for mRNA quantification or during 72 h for immunohistological analysis.
# RHE were washed and fixed with formaldehyde solution. Fixed tissues were dehydrated with increasing ethanol concentrations, embedded in paraffin and sections were carried out using a microtome (4 μm thickness). The sections were deparaffinised, washed and incubated with hydrogen peroxide. The sections were incubated with anti-CK10 (SantaCruz, SC-23877), anti-LOR (Eurogentec, PRB-145P), anti-FLG (SantaCruz, SC-66192), anti-IVL (Biomedical Technologies, BT-601), anti-S100A7 (Clinisciences, IMG-409A) and then detected using a biotin-conjugated secondary antibody (Vector, RTU vectastain universal quick kit, PK-7800). After peroxidase-conjugated streptavidine (Vector, RTU vectastain universal quick kit, PK-7800) and peroxidase substrate addition (Dako, Substrat hyper-sensible AEC+), nuclei were counter-stained using a solution of hematoxylin. Sections were observed using a NIKON E400 microscope. The images were captured using a NIKON DS-Ril and processed with NIS-Elements 3.10 software.
# [2] = system: NHEK; test: cDNA macroarrays analysis of 36 cytokines on 154 genes in NHEK; type: cell-based, human; conditions: 10 ng/ml, 24 h
# Experimental: The comparison of the effects of 36 different cytokines on the expression of 154 genes of potential interest for skin physiology was performed using home-made cDNA macroarrays analysis. After cytokine stimulation, total RNA was extracted using TRIzoI® Reagent (Invitrogen life Technologies) and conventional 33P-cDNA target synthesis and hybridization were performed (Boniface et al, 2007). Genes were considered regulated if expression levels differed more than 3-fold relative to untreated control and 3-fold relative to mean background noise.
# [3] = system: NHEK; test: Cytokine measurement by ELISA in NHEK culture supernatants; type: cell-based, human; conditions: 96 h; for Redundancy with the family member it replaces in M5 (BD2 and CXCL8 production): IL-1β for IL-1α, TNFβ for TNFα, IL-17F for IL-17A, IL-24 for IL-22, IL-6 for OSM
# Experimental: (§2) NHEK were obtained as previously described, from surgical samples of healthy breast skin (Boniface et al, 2005). NHEK were cultured to 80% of confluence and then starved for 24 h in Keratinocyte SFM without addition of growth factors before stimulation. Cells were stimulated with or without 10 ng/ml of recombinant IL-17A, OSM, TNFα, IL-22 and IL-1α alone or in combination (R&D systems Europe, Lille, France) during 24 h for mRNA quantification or 48 h to 96 h for protein quantification.
# Levels of BD2, BD3 and CXCL8 were determined using Human ELISA development kit (Peprotech), and CXCL1 and CXCL5 with DuoSet reagents (R&D Systems Europe).
# [4] = system: NHEK; test: RT-QPCR of antimicrobial peptide and chemokine genes in NHEK; type: cell-based, human; conditions: 10 ng/ml, 24 h
# Experimental: as §2
# NHEK and skin total RNA were isolated and reverse-transcribed as previously described (Boniface et al, 2005). Quantitative real time PCR was carried using the LightCycler-FastStart DNA Master SYBR® Green I kit on LightCycler 480 (Roche Diagnostics, Meylan, France). The reaction components were 1×DNA Master Mix, and 0.5 μM of HPLC purified sense and anti-sense oligonucleotides purchased from Eurogentec (Eurogentec France, Angers, France), designed using Primer3 software. Samples were normalized to three independent control housekeeping genes (G3PDH, RPL13A or ACTB for human samples and G3PDH, HMBS or B2m for mouse samples) and reported according to the ΔΔCT method as RNA fold increase: 2^ΔΔCT=2^ΔCT sample−ΔCT eference. For comparison of normal skin and psoriatic skin the REST 2008 software was used (Pfaffl et al., 2002).
# [5] = system: NHEK; test: Keratinocyte differentiation marker (KDM) mRNA in NHEK (RT-PCR); type: cell-based, human; conditions: 24 h; for mRNA expression of CK1, DSG1, DSC1, FLG, CLSP, LOR and FABPS: single cytokines 10 ng/ml
# Experimental: as §1
# (§3) NHEK, RHE and murine skin total RNA were isolated using NucleoSpin® RNA II kit (Macherey-Nagel, Hoerdt, France) and reverse-transcribed with SuperScript® II Reverse Transcriptase (Invitrogen Life Technologies) according to the manufacturer's instructions. Quantitative real time PCR was carried out using the LightCycler-FastStart DNA Master SYBR® Green I kit on LightCycler 480 (Roche Diagnostics, Meylan, France). The reaction components were 1×DNA Master Mix, and 0.5 μM of HPLC purified sense and anti-sense oligonucleotides purchased from Eurogentec (Eurogentec France, Angers, France), designed using Primer3 software. The stability of the housekeeping gene expression has been assessed by using GeNorm algorithm. […] Thus samples were normalized to G3PDH housekeeping gene and reported according to the ΔΔCT method as RNA fold increase: 2^ΔΔCT=2^ΔCT sample−ΔCT reference.
# [6] = system: normal human keratinocytes (NHEK); test: Cytokine cocktails on S100A7, hBD2/4, KRT10 mRNA in NHEK (RT-Q-PCR); type: cell-based; conditions: NHEK 24 hrs, 1 ng/ml each
# Experimental: Quantitative real time PCR was carried out using the LightCycler-FastStart DNA Master^PLUS SYBR Green I kit (Roche, Mannheim, Germany). The reaction components were 1× FastStart DNA Master^PLUS SYBR Green I and 0.5 μM of forward and reverse primers for S100A7 (forward 5′-[…]-3′ (SEQ ID No: 9) and reverse 5′-[…]-3′ (SEQ ID No: 10)), S100A8 (Pattyn, Speleman et al. 2003), S100A9 (forward 5′-[…]-3′ (SEQ ID No: 11) and reverse 5′-[…]-3′ (SEQ ID No: 12)), hBD2/4 (forward 5′-[…]-3′ (SEQ ID No: 13) and reverse 5′-[…]-3′ (SEQ ID No: 14)), KRT10 (forward 5′-[…]-3′ (SEQ ID No: 15) and reverse 5′-[…]-3′ (SEQ ID No: 16)), and hydroxymethyl-bilane synthase (HMBS) as a housekeeping gene (Vandesompele, De Preter et al. 2002). After cDNA fluorescent quantification using propidium iodide, 250 ng, 25 ng and 2.5 ng of cDNA were added as PCR template in the LightCycler glass capillaries. The cycling conditions comprised a 10 min polymerase activation at 95° C. and 50 cycles at 95° C. for 10 s, 64° C. for 5 s and 72° C. for 18 s with a single fluorescence measurement. […] A mathematical model was used to determine the relative quantification of target genes compared to HMBS reference gene (Pfaffl 2001).
# To that aim, confluent normal human keratinocytes (NHEK) were treated for 24 hrs with the indicated mix of cytokines (each cytokine at 1 ng/ml final concentration). Total RNA was extracted, reverse-transcribed and the expression of the selected genes was analyzed by real-time PCR as described.
# [7] = system: RHE; test: KDM mRNA in reconstituted human epidermis (RT-PCR); type: cell-based; conditions: 24 h
# Experimental: as §1, §3
molecule,measurement,setting,value
"CC(C)(C)c1nc2c3ccc(F)cc3c3c(=O)[nH]ccc3c2[nH]1 [JAKs inhibitor, reference compound]",Effect on M5-induced RHE disruption and hyperplasia,[1]; JAKs inhibitor 10 μM with M5 (3 ng/ml),protects the integrity of the RHE and blocked the epidermal hyperplasia
IL-1β: cytokine of the same family as IL-1α,Number of genes (of 154) whose expression is modified with at least a three fold increase or decrease,[2],at least five genes
same,Redundancy with the family member it replaces in M5 (BD2 and CXCL8 production),[3],total redundancy
IL-6: cytokine of the same family as OSM,Number of genes (of 154) whose expression is modified with at least a three fold increase or decrease,[2],at least five genes
same,Redundancy with the family member it replaces in M5 (BD2 and CXCL8 production),[3],weak redundancy
"IL-17A: recombinant cytokine; IL-17 designates IL-17A, IL-17B or a mixture, preferably IL-17A",Number of the 21 chemokine and antimicrobial peptide genes upregulated,[4],16
same,Number of genes (of 154) whose expression is modified with at least a three fold increase or decrease,[2],at least five genes
same,"CK10, LOR and FLG expression (immunohistology)",[1],did not exhibit any activity
same,IVL expression (immunohistology),[1],discreetly induced
same,S100A7 expression (immunohistology),[1],very slightly
same,RHE histology,[1],does not modify RHE histology
same,Number of KDM whose control mRNA expression is partially restored on removal of the cytokine from M5,[5],3 KDM
same,"mRNA expression of CK1, DSG1, DSC1, FLG, CLSP, LOR and FABPS",[5],minor activities
same,"BD2 production, single cytokines",[3]; 10 ng/ml,most potent inducers
same,Contribution to M5 activity on BD2 and CXCL8 production (successive removal),[3],more critical to the activity of the M5 combination
same,"Decrease of the activity of the 5 cytokines reference mix on omission of the cytokine, S100A7",[6],4.5 fold
same,"Decrease of the activity of the 5 cytokines reference mix on omission of the cytokine, hBD2/4",[6],36 fold
same,IVL mRNA expression,[7],discretely inhibited
TNFα,Number of the 21 chemokine and antimicrobial peptide genes upregulated,[4],20
same,Number of genes (of 154) whose expression is modified with at least a three fold increase or decrease,[2],at least five genes
same,"CK10, LOR and FLG expression (immunohistology)",[1],did not exhibit any activity
same,IVL expression (immunohistology),[1],discreetly induced
same,S100A7 expression (immunohistology),[1],very slightly
same,RHE histology,[1],does not modify RHE histology
same,Rank as contributor to keratinocyte differentiation inhibition (removal from M5),[5],most potent cytokines for keratinocyte differentiation inhibition
same,"mRNA expression of CK1, DSG1, DSC1, FLG, CLSP, LOR and FABPS",[5],downregulate mRNA expression
same,Contribution to M5 activity on BD2 and CXCL8 production (successive removal),[3],more critical to the activity of the M5 combination
same,"Decrease of the activity of the 5 cytokines reference mix on omission of the cytokine, S100A7",[6],3 fold
same,"Decrease of the activity of the 5 cytokines reference mix on omission of the cytokine, hBD2/4",[6],5.6 fold
B1,Redundancy with the family member it replaces in M5 (BD2 and CXCL8 production),[3],limited redundancy
B2,Effect of depleting the cytokine from the mix on activity of the complete cocktail,[6],did not significantly decrease the activity
B3,Number of genes (of 154) whose expression is modified with at least a three fold increase or decrease,[2],at least five genes
same,Redundancy with the family member it replaces in M5 (BD2 and CXCL8 production),[3],limited redundancy
B4,Redundancy with the family member it replaces in M5 (BD2 and CXCL8 production),[3],strong redundancy
